Source: patent US20220356163A1, “SMALL MOLECULE INHIBITORS OF Id PROTEINS” (MEMORIAL SLOAN KETTERING CANCER CENTER, priority 2019, published 2022)

How the values were obtained:
[1] = test system: HUVEC; experiment: HUVEC scratch (migration) assay; assay type: cell-based, human; settings: 0-40 μM, 24 hours
Protocol: HUVEC scratch assay. HUVECs were seeded on 24-well plate coated with 0.1% fibronectin. After 24 hours when cells were grown to confluency, cells were serum starved for 4 hours in Endothelial Basal Medium (EBM, Lonza) and scraped with a sterile P200 pipette tip to generate a cell free zone. Cells were washed with PBS and stimulated with EGM-2 medium with the indicated AGX concentration for 24 hours. The scratched area at 0 and at 24 hours was visualized using an inverted microscope and photographed with a digital camera at 20× magnification.

[2] = test system: MDA-MB-436; experiment: MTT assay, MDA-MB-436; assay type: cell-based; settings: Homo sapiens, 24 h, MDA-MB-436, TNBC cell line, read-out: IC50 value after 24 hours of treatment
Source text: (§1) The 4T1 murine mammary tumor cell line and nine breast cancer cell lines representing the major breast cancer subtypes (ER+, HER2+, and TNBC) including MDA-MB-157, MDA-MB-436, MDA-MB-231, MDA-MB-453, MDA-MB-361, BT-474, SK-BR-3, MCF-7 and T47-D will be grown in RPMI or DMEM (Dulbecco's Modified Eagle Medium) media supplemented with 10% FBS (fetal bovine serum), 1% penicillin-streptomycin and 1% L-Glutamine. Patient derived xenograft cell lines BR7, BR11, and IBT will be established directly from breast cancer bone metastases specimens surgically resected from patients with informed consent. BR7 and BR11 specimens will be obtained from ER positive (HER2 negative and PR negative) metastatic breast cancer patients, while the IBT specimen will be obtained from a metastatic, triple negative breast cancer patient. Fresh tumor tissues will be quickly washed with ice cold PBS and minced into about 1-3 mm pieces in MEM medium (without FBS) using sterile razor blades. […] The cells will be treated with either 100 μM DMSO, AGX51, or a compound of the present technology such as AGX-A. The cell morphology and growth will be monitored daily for 1 week by microscopy for changes in morphology or cell death. […] Absorbance will then measured at 570 nm using a plate reader (Synergy 2, BioTek). […]

[3] = test system: DU145 cells; experiment: Prostate cancer cell morphology, growth and death; assay type: cell-based
Protocol: Prostate cancer cell lines DU145 and PC3 (in 10% BCS) will be cultured in Ham's F12 (Gibco, Carlsbad, Calif.) medium containing 10% BCS (Hyclone, Logan, Utah) and appropriate antibiotics (pen/strep, fungizaone, and gentamycin (Invitrogen Inc., Carlsbad, Calif.). All cells will be cultured at 37° C. in a fully humidified atmosphere containing 5% CO2.
At 50% confluence, the cells will be treated with either 100 μM DMSO, AGX51, or a compound of the present technology (such as AGX-A). The cell morphology and growth will be monitored daily for 1 week by microscopy for changes in morphology or cell death. Apoptosis will be determined by measuring caspase 3 and caspase 7 activities using the Caspase-Glo 3/7 Assay system from Promega (Madison, Wis.).

[4] = test system: PDX-BR11; experiment: MTT assay, PDX-BR11; assay type: cell-based; settings: 24 h, PDX-BR11, PDX cell line, read-out: IC50 value after 24 hours of treatment
Source text: as §1

[5] = test system: PDX RomeP_PHCH_X_0008a; experiment: Murine PDX model of cholangiocarcinoma, Round 1 (AGX-A in DMSO); assay type: in vivo, mouse
Protocol: A first round of the study (“Round 1”) was planned as indicated in the Round 1 Study Protocol blow, utilizing gemcitabine in saline and AGX-A in DMSO for administration. • Mice: NSG females, 6-8 weeks old • […], serially transplanted sc with matrigel • Treatment Groups (at least 6 animals/group): treatments started when tumors reached 100 mm^3 (“Day 0” for each animal) • Group 1. Saline, i.p. once a week (“QW”) for 3-4 weeks (“×3-4 weeks”) • Group 2. Gemcitabine 25 mg/kg i.p. QW×3-4 weeks • Group 3. AGX-A 10 mg/kg i.p. once a day for 5 consecutive days (“QD×5”)×3-4 weeks • Group 4. Gemcitabine 25 mg/kg […] 10 mg/kg i.p. QD×5×3-4 weeks Tumor volumes, weights, and clinical signs were monitored a minimum of twice per week for each animal in each group throughout the study. In the Round 1 study, it was observed that animal weight in Groups 1 and 2 was essentially unchanged for the duration of the study. […] Because of this, treatment in Groups 3 and 4 was halted after Day 9 while tumor volumes, weights, and clinical signs continued to be monitored a minimum of twice per week for each subject in each group. Subsequently, the animals in Groups 3 and 4 stopped loosing weight and instead started regaining weight. Meanwhile, treatment in Groups 1 and 2 continued as planned. Due to the alterations in the planned study, Round 1 was concluded at Day 20.

Row | SMILES | HUVEC migration [1] | IC50 [2] | DU145 cell death ([3]; after six days) | effect on DU145 cells ([3]; after three days) | IC50 [4] | tumor volume ([5]; AGX-A 10 mg/kg i.p. QD×5 in DMSO, treatment discontinued at 9 days, vs gemcitabine 25 mg/kg QW) | animal weight ([5]; AGX-A in DMSO, Groups 3 and 4)
1 | CCC(=O)N(CCC(c1ccc2c(c1)OCO2)c1ccccc1OC)Cc1ccccc1 (racemic) [AGX51, N-(3-(benzo[d][1,3]dioxol-5-yl)-3-(2-methoxyphenyl)propyl)-N-benzylpropionamide] | significantly impaired HUVEC migration | 30.9 µM | lead to cell death | pronounced effect on DU145 cells | 18.6 µM | – | –
2 | COc1ccccc1C(CCNCc1ccccc1)c1ccc(OC(C)C)cc1 (stereo not shown) [AGX-A, N-benzyl-3-(4-isopropoxyphenyl)-3-(2-methoxyphenyl)propan-1-anine] | – | – | – | – | – | performs better than the SOC drug gemcitabine | weight loss was observed
